From patent publication US20220298146A1, “HETEROCYCLIC DERIVATIVE AND USE THEREOF” (Transthera Sciences (Nanjing), Inc., priority 2019, published 2022)

Tests used:
H1299 cell pAxl = target: T1, H1299 cell pAxl (Homo sapiens, UniProt P30530); test: Inhibitory activity on cell pAxl (H1299 cells, hGAS6 stimulation, Western Blot); format: cell-based; conditions: hGAS6 200 ng/mL, tested at 1.1, 3.3, 10 and 30 nM, read-out: Inhibitory Activity on Cell pAx1, IC50
T1 construct: endogenous in cells; host or cells: H1299
T1 sequence (P30530 26-894): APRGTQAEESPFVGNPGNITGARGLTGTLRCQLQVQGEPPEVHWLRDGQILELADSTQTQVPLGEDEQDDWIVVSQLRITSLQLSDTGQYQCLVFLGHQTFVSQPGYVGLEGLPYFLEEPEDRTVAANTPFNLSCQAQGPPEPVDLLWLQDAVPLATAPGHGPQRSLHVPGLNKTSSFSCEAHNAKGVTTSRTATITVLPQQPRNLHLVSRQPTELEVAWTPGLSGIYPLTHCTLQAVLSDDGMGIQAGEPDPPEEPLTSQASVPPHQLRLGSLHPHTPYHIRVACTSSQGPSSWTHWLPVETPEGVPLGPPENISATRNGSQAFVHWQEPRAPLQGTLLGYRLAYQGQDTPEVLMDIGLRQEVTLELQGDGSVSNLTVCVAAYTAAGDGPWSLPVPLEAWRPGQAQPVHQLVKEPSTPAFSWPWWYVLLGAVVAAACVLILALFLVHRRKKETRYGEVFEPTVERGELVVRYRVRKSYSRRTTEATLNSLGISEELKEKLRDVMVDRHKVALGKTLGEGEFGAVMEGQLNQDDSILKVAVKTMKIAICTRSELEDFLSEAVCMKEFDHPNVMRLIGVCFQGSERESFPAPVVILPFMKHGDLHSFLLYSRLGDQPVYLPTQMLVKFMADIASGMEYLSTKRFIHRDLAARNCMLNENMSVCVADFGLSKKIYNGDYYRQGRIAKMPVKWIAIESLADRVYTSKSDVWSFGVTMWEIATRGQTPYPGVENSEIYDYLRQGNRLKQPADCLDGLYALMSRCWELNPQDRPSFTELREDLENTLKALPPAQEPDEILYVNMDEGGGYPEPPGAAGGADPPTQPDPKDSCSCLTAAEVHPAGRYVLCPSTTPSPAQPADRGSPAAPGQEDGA
Protocol: H1299 is a non-small cell lung cancer cell.
Test samples: the compounds of the present invention, having structures shown above.
Test instruments: protein electrophoresis apparatus (made by Bio Rad), membrane transfer apparatus (made by Bio Rad), exposure apparatus (made by Tanon), and CO2 cell incubator (made by Thermo).
H1299 cells were inoculated into a 6-well plate (containing 10% FBS 1640 medium, 5×10^5 cells per well) and adherently cultivated at 37° C. and 5% CO2 for 18 h. The cells were starved overnight, and compounds with different concentrations were added. The compounds had final concentrations of 1.1 nM, 3.3 nM, 10 nM and 30 nM, with DMSO having a final concentration of 1‰. There was a medium containing 10‰ DMSO in the negative control well. The cells were incubated at 37° C. and 5% CO2 for 60 min, and then hGAS6 (R&D, final concentration: 200 ng/mL) was added to each well. The cells were further incubated for 60 min, and then the total protein of the cells was extracted for Western Blot experiment. IC50 values were calculated with GraphPad 5.0 software, and the inhibitory activities of the compounds on cell pAxl were detected.

Axl (h) = target: T2, Axl (h) (Homo sapiens, UniProt P30530); test: Enzymatic activity assay, Axl (h) kinase, [γ-33P]-ATP; format: biochemical; conditions: 10 μM [γ-33P]-ATP, 40 min, room temperature; read-out: Inhibitory Activity on Ax1 (h), IC50
T2 construct: purchased
T2 sequence (P30530 26-894): T1 sequence (P30530 26-894)
Protocol: (§1) Test samples: the compounds of the present invention, having structures and preparation methods shown above.
(§2) (1) Preparation of Compound Stock Solutions
(§3) Compounds were each dissolved in 100% DMSO to prepare stock solutions with a maximum concentration of 500 μM.
(§4) (2) Preparation of Compound Working Solutions
(§5) The compound stock solutions were diluted to final concentrations of 500 μM, 150 μM, 50 μM, 15 μM, 5 μM, 1.5 μM, 0.5 μM, 0.15 μM and 0.05 μM to prepare compound working solutions (50×).
(3) Preparation of different enzymatic reaction solutions
Axl (h) enzyme was dissolved in a mixture of 8 mM MOPS (pH 7.0), 0.2 mM EDTA and 250 μM KKSRGDYMTMQIG to prepare an enzyme solution with a final concentration of 1.7 nM. An Mg/ATP mixture of 10 mM magnesium acetate and 10 μM [γ-^33P]-ATP was used to activate the enzymatic reaction.
(§6) The compound working solutions were added to a 384-well plate, with final concentrations of 10000 nM, 3000 nM, 1000 nM, 300 nM, 100 nM, 30 nM, 10 nM, 3 nM and 1 nM, respectively, and then different enzymatic reaction solutions prepared according to the above conditions were added. The reaction solutions were incubated at room temperature for 40 min, and then 0.5% phosphoric acid solutions were added to terminate the reaction. 10 μL of the reaction solution was added dropwise to P30 filter paper which was washed 4 times with a 0.425% phosphoric acid solution and once with methanol and then placed in a scintillation counter for detection. Gray analysis was performed on the results with Image J software, and IC50 values were calculated with GraphPad 5.0 software.

LCK (h) = target: T3, LCK (h) (Homo sapiens, UniProt P06239); test: Enzymatic activity assay, LCK (h) kinase, [γ-33P]-ATP; format: biochemical; conditions: 10 μM [γ-33P]-ATP, 40 min, room temperature; read-out: Inhibitory Activity on LCK (h) kinase, IC50
T3 construct: purchased
Protocol: as §1
Preparation of Compound Stock Solutions:
as §3
Preparation of Compound Working Solutions:
as §5
Preparation of Different Enzymatic Reaction Solutions:
LCK (h) enzyme was dissolved in a mixture of 50 mM Tris (pH 7.5), 0.1 mM EGTA, 0.1 mM Na3VO4 and 250 μM KVEKIGEGTYGVVYK to prepare an enzyme solution with a final concentration of 45 nM. An Mg/ATP mixture of 10 mM magnesium acetate and 10 μM [γ-^33P]-ATP was used to activate the enzymatic reaction.
as §6

Ron (h) = target: T4, Ron (h) (Homo sapiens, UniProt Q04912); test: Enzymatic activity assay, Ron (h) kinase, [γ-33P]-ATP; format: biochemical; conditions: 10 μM [γ-33P]-ATP, 40 min, room temperature; read-out: Inhibitory Activity on Ron (h) kinase, IC50
T4 construct: purchased
Protocol: as §1, §2, §3, §4, §5
(3) Preparation of Different Enzymatic Reaction Solutions
Ron (h) enzyme was dissolved in a mixture of 8 mM MOPS (pH 7.0), 0.2 mM EDTA and 250 μM GGMEDIYFEFMGGKKK to prepare an enzyme solution with a final concentration of 40.4 nM. An Mg/ATP mixture of 10 mM magnesium acetate and 10 μM [γ-^33P]-ATP was used to activate the enzymatic reaction.
as §6

T3 sequence (P06239 whole entry): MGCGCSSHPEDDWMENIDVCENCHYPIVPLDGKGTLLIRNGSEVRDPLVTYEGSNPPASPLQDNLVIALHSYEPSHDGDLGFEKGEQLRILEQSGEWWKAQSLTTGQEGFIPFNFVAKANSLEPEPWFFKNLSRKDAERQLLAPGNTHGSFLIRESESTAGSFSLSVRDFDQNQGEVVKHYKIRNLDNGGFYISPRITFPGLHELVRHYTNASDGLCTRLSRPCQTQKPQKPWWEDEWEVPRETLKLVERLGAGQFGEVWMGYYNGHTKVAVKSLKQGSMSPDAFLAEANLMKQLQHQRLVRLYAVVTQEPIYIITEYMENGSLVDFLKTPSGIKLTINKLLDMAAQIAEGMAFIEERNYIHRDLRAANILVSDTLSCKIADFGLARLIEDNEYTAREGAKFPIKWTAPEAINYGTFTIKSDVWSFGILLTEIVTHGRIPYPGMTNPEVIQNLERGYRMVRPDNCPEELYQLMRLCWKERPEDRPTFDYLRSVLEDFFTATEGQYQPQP
T4 sequence (Q04912 25-1400): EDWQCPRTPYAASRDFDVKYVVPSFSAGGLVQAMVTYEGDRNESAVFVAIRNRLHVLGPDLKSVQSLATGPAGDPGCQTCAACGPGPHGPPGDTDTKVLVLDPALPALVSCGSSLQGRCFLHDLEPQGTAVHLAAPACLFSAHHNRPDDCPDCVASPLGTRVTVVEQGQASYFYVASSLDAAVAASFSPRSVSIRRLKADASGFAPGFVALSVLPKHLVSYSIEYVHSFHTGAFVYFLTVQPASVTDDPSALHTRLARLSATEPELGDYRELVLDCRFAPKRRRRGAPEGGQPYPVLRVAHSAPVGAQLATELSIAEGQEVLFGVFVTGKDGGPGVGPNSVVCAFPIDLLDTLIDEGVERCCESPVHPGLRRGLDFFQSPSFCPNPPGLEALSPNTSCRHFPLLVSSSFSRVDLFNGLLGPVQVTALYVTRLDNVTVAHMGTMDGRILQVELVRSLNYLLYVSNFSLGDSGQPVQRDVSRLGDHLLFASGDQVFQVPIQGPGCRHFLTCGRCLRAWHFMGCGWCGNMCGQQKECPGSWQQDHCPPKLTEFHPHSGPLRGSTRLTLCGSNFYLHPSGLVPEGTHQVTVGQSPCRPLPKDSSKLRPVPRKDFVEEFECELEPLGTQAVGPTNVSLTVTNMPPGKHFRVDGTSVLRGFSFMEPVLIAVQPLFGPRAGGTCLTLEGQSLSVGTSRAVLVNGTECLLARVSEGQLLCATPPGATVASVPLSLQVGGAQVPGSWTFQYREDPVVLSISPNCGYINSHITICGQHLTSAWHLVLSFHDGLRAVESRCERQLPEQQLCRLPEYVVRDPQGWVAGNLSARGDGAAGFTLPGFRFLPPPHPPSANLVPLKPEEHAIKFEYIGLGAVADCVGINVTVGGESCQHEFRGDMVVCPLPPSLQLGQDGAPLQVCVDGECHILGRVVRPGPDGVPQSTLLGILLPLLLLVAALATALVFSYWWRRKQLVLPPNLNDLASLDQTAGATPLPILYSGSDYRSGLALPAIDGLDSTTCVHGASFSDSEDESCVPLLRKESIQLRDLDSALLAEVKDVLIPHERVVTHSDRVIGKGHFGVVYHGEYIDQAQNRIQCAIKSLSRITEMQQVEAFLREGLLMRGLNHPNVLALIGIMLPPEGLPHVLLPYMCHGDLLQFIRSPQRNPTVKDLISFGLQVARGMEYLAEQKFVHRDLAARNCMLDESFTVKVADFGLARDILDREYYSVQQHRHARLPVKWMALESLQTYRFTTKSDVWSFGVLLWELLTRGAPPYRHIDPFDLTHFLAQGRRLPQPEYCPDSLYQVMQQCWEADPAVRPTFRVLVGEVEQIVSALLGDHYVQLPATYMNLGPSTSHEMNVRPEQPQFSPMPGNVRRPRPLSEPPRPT

SMILES | IC50 (H1299 cell pAxl) | IC50 (Axl (h)) | IC50 (LCK (h)) | IC50 (Ron (h))
CC(C)n1cc(-c2ccc(F)cc2)c(=O)c(C(=O)Nc2ccc(Oc3cc4cnn(C)c4cc3-c3cn[nH]c3)cn2)n1 [Compound 1, 5-(4-fluorophenyl)-1-isopropyl-N-(5-((1-methyl-6-(1H-pyrazol-4-yl)-1H-indazol-5-yl)oxy)pyridin-2-yl)-4-oxo-1,4-dihydropyridazine-3-carboxamide] | 1.1 nM |  |  | 
CC(C)n1cc(-c2ccc(F)cc2)c(=O)c(C(=O)Nc2cnc(Oc3ccnc(N)c3Cl)nc2)n1 [Compound 16, N-(2-((2-amino-3-chloropyridin-4-yl)oxy)pyrimidin-5-yl)-5-(4-fluorophenyl)-1-isopropyl-4-oxo-1,4-dihydropyridazine-3-carboxamide] |  | 16 nM | 579 nM | 
Nc1nccc(Oc2ncc(NC(=O)c3nn(C4CC4)cc(-c4ccc(F)cc4)c3=O)cn2)c1Cl [Compound 20, N-(2-((2-amino-3-chloropyridin-4-yl)oxy)pyrimidin-5-yl)-1-cyclopropyl-5-(4-fluorophenyl)-4-oxo-1,4-dihydropyridazine-3-carboxamide] | 10 to 30 nM | 17 nM | 2250 nM | 
CC(C)n1cc(C(=O)Nc2ccc(Oc3ccnc(N)c3Cl)nc2)c(=O)c(-c2ccc(F)cc2)n1 [Compound 23, N-(6-((2-amino-3-chloropyridin-4-yl)oxy)pyridin-3-yl)-6-(4-fluorophenyl)-2-isopropyl-5-oxo-2,5-dihydropyridazine-4-carboxamide] |  | 30 nM | > 10000 nM | 92 nM
C=CCn1cc(-c2ccc(F)cc2)c(=O)c(C(=O)Nc2cnc(Oc3ccnc(N)c3Cl)nc2)n1 [Compound 40, 1-allyl-N-(2-((2-amino-3-chloropyridin-4-yl)oxy)pyrimidin-5-yl)-5-(4-fluorophenyl)-4-oxo-1,4-dihydropyridazine-3-carboxamide] |  | 13 nM | 1070 nM | 
